This passage reports IC50, EC50 and AC50 results from ChEMBL document CHEMBL1201862, “PubChem BioAssay data set” (2004).

Broadly, the IC50 is the concentration at which inhibition is half-maximal. As a reminder, the EC50 is the concentration needed to bring the measured effect to its halfway point. The AC50 is the concentration at which the activity in the assay is half-maximal.

Activity calls are given as the source filed them.

Data set [1] has as its target T1, Calpain-2 catalytic subunit (Sus scrofa, UniProt P43367).
T1 sequence (P43367 whole entry): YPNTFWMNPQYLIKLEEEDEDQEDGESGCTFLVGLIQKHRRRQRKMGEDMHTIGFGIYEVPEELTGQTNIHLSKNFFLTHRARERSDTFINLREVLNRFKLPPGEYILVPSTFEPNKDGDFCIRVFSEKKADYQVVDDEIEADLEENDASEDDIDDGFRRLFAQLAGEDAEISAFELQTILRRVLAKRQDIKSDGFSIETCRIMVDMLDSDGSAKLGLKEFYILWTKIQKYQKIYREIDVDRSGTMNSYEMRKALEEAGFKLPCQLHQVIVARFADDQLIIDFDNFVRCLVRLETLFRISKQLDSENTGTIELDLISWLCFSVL
In words: pig calpain II inhibitor potency, dose response, biochemical, fluorogenic peptide substrate (AID 1420). The format is functional.

The test system of data set [2] is H4. In words: Luminescence Cell-Based Dose Response HTS to Identify Activators of 5'UTR Stem-Loop Driven Prion Protein mRNA Translation in H4 Neuroglioblastoma Cells. [Related pubchem assays: 1829 (Project Summary), 1814 (Primary HTS)]. It is filed as functional. Conditions: Homo sapiens.
The nature of data set [3]: Luminescence Cell-Based Dose Confirmation HTS to Identify Activators of 5'UTR Stem-Loop Driven Alpha-Synuclein mRNA Translation in H4 Neuroglioblastoma Cells. [Related pubchem assays: 1829 (Project Summary), 1814 (Primary HTS)]. It is filed as functional.
Data set [4] in a line: Luminescence Cell-Based Dose Response HTS to Identify Activators of Luciferase Translation or Activity in H4 […] Cells. [Related pubchem assays: 1829 (Project Summary), 1814 (Primary HTS)]. The format is functional.
Data set [5] deals with Large T antigen (Simian virus 40, UniProt P03070). It is filed as functional, Betapolyomavirus macacae.
Large T antigen, sequence (P03070 whole entry): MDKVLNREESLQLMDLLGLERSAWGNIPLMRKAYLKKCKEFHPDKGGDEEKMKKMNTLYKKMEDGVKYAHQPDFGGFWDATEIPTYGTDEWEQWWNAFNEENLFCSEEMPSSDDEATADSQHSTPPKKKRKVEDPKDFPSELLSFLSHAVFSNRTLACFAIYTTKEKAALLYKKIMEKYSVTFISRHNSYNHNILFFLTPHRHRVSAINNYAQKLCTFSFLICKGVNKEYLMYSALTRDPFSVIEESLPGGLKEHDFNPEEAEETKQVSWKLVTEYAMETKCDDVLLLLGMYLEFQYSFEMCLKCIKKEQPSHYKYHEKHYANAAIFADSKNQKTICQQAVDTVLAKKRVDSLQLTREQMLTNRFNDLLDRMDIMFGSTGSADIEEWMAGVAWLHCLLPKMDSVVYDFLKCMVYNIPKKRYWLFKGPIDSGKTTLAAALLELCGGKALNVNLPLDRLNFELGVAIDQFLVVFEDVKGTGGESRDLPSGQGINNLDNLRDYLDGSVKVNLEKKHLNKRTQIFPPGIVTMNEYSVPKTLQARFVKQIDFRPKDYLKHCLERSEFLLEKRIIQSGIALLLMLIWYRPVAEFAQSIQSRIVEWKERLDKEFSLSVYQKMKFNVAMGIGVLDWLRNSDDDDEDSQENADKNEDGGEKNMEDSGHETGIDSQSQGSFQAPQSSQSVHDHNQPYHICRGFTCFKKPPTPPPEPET
Data set [6] deals with Cytochrome P450 2C19 (Homo sapiens, UniProt P33261). In words: Cytochrome panel assay with activity outcomes. Panel member name: p450-cyp2c19 Compounds with AC50 equal or less than 10 uM are considered active. The format is functional.
Cytochrome P450 2C19, sequence (P33261 whole entry): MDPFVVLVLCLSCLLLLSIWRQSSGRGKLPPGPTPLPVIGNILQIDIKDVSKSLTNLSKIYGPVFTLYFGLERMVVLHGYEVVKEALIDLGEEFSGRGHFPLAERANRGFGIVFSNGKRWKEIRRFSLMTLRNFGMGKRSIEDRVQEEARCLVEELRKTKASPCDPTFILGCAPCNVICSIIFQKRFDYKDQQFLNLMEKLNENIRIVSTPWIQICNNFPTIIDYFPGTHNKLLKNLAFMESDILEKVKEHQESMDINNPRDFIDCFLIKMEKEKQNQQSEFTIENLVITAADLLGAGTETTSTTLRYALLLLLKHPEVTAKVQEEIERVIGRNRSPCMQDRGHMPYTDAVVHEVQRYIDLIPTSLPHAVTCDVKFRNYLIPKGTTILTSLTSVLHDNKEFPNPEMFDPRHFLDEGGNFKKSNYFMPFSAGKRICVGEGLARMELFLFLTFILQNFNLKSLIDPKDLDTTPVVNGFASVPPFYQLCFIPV
In data set [7] the target is Cytochrome P450 3A4 (Homo sapiens, UniProt P08684).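 Note: CYP3A4 tested as one member of a cytochrome P450 panel screen.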
Cytochrome P450 3A4, sequence (P08684 whole entry): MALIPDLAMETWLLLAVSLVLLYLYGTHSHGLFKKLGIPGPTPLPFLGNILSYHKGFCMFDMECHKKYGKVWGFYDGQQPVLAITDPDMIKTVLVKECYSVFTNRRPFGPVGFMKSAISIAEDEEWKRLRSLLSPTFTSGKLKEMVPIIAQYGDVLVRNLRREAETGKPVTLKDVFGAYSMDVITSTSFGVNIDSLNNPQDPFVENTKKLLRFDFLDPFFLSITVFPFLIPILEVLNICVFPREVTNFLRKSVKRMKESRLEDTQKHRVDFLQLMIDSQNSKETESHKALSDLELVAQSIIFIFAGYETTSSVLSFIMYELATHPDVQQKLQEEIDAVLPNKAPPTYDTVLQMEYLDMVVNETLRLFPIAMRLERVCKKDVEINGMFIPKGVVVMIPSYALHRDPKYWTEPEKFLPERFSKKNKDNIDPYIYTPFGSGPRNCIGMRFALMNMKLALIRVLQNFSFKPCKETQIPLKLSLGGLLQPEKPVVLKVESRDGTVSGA
Data set [8] addresses T2, Cytochrome P450 1A2 (Homo sapiens, UniProt P05177).
T2 sequence (P05177 whole entry): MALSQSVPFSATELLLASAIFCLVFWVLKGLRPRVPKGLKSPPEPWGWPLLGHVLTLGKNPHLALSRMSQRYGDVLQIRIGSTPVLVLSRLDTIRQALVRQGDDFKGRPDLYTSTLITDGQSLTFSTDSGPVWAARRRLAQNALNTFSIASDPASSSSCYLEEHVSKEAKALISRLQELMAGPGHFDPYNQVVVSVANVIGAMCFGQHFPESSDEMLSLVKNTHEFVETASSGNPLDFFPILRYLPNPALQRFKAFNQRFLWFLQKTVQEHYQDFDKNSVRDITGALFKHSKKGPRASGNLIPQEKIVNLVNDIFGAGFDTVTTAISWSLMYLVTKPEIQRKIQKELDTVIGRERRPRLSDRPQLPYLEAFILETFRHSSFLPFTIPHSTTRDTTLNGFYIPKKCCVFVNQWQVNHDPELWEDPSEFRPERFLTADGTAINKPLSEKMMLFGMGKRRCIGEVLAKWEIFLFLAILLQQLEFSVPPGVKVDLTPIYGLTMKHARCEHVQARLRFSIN

Data set [9] has as its target Cytochrome P450 2C9 (Homo sapiens, UniProt P11712).
The target in data set [10] is Luciferin 4-monooxygenase (Photinus pyralis, UniProt P08659). In words: firefly luciferase enzyme inhibitors, dose response, biochemical, luminescence (AID 1891).
Luciferin 4-monooxygenase, sequence (P08659 whole entry): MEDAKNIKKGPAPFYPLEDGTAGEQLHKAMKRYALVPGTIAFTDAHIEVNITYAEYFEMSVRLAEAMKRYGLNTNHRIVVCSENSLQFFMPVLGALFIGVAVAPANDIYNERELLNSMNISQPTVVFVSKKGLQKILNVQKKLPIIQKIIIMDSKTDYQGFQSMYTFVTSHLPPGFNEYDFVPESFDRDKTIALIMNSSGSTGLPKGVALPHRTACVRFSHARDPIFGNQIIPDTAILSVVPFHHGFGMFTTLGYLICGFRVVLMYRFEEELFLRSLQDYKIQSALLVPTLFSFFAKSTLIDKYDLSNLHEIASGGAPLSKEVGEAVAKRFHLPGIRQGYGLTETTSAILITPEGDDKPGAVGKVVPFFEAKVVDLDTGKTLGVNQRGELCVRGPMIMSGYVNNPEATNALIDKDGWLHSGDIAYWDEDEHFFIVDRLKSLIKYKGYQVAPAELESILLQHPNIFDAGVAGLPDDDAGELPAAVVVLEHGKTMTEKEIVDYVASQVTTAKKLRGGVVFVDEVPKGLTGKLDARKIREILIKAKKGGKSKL
Data set [11] in a line: Luminescence Cell-Based Dose Confirmation HTS to Identify Inhibitors of Platelet Dense Granule Release. [Related pubchem assays: 1663 (Primary HTS), 1678 (Summary of Project)]. The format is functional.
Data set [12] addresses T3, RNA-binding protein pos-1 (Caenorhabditis elegans, UniProt G5EF15).
T3 sequence (G5EF15 whole entry): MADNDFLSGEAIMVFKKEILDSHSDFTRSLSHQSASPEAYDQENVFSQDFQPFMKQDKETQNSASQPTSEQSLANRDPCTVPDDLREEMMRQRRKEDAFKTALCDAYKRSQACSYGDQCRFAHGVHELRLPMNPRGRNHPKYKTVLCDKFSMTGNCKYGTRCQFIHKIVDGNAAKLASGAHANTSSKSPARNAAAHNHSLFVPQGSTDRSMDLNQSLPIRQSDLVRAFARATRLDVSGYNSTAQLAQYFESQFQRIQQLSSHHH
In words: inhibitors of POS-1/mex-3 RNA binding, dose response, biochemical, fluorescence polarization (AID 1964). (In general: Fluorescence polarisation rises when a labelled molecule tumbles more slowly, as on binding a larger partner.)

Data set [13] has as its target T4, Zinc finger protein mex-5 (Caenorhabditis elegans, UniProt Q9XUB2).
T4 sequence (Q9XUB2 whole entry): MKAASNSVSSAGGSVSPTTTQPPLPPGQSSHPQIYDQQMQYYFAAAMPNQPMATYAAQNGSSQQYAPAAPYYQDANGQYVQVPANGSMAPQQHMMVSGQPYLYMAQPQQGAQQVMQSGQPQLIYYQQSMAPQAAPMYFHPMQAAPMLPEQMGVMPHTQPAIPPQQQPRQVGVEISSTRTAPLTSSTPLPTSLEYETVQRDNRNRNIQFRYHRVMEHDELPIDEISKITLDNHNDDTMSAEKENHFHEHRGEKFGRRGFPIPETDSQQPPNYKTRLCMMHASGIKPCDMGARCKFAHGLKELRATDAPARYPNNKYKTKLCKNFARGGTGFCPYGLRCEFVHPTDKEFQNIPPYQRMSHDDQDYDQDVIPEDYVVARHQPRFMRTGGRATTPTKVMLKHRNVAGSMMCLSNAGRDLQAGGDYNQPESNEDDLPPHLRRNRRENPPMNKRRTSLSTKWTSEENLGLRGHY
In words: MEX-5/TCR-2 RNA interaction inhibitors, dose response, biochemical, C. elegans, fluorescence polarization (AID 1960).

Cytochrome P450 2C9, sequence (P11712 whole entry): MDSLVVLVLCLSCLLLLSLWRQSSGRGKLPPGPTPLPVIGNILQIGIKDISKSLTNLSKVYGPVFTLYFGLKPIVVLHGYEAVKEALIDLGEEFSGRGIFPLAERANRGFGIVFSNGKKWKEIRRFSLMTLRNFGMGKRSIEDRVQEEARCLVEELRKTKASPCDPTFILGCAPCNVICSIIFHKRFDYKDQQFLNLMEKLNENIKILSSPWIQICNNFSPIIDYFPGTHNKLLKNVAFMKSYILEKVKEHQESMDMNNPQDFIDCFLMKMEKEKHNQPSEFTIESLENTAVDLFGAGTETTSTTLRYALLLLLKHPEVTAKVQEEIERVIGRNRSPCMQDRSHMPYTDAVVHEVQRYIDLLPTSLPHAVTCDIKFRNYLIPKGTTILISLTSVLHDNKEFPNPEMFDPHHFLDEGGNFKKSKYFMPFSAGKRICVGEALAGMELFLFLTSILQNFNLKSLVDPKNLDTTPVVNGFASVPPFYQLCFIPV

As to `COc1ccc(C(=O)CSc2nc(N)nc(SC)c2C#N)cc1`, the IC50 in data set [1] is given as 17.3 µM (not active).

With `CCC(=O)N1CCc2nc(-c3ccccc3)sc2C1`, the EC50 was 46.3 µM (active) in data set [2], 7.33 µM (active) in data set [3] and 20.4 µM (active) in [4].

With `COc1ccc(COC(=O)Nc2cc3c(C(F)(F)F)nn(C)c3s2)cc1`, the half-inhibitory concentration (IC50) in [1] was 14 µM (active).

As to `CN(C)c1nn(C(=O)Nc2ccc(Cl)cc2Cl)cc1-c1ccccc1`, the IC50 in [5] was 38 µM (active).

In the case of `Cc1ccc(-c2nnc(CCC(=O)NCC3C4CC5CC(C4)CC3C5)o2)s1` (centres undefined), the concentration giving a half-maximal response (EC50) in data set [2] is 20.2 µM (active); in data set [3], 11.6 µM (active); in [4], 17.6 µM (active).

For `Cc1ccccc1N1C(=O)NC(=O)/C(=C/Nc2ccc(N(C)C)cc2)C1=O`, the AC50 was 22.4 µM (inconclusive) in [6] (read-out: AC50) and 0.398 µM (inconclusive) in [7]. Also, the IC50 in data set [5] is 6.73 µM (active).

As to `Cc1nc(NC(=O)c2ccccc2)sc1-c1csc(Nc2ccc(Cl)cc2)n1`, the AC50 in [8] is 7.08 µM (inconclusive); in data set [9], “inconclusive”.

With `Cc1ccc(NC(=O)CN2CCC(Cc3ccccc3)CC2)cc1S(=O)(=O)N(C)C`, the IC50 in data set [1] is on record as 27.3 µM (not active).

In the case of `Cc1ccc2nc(N3CCN(C(=O)c4ccco4)CC3)sc2c1`, the EC50 is 34.9 µM (active) in data set [2], 5.76 µM (active) in data set [3] and > 120 µM (not active) in data set [4].

With `COc1ccccc1OCCN1C(=O)S/C(=C\c2ccco2)C1=O`, the half-maximal activity concentration (AC50) result in data set [9] was “inconclusive”.

In the case of `CCn1cc(NC(=O)Nc2ccccc2C(=O)OC)c(C(N)=O)n1`, the EC50 in [10] and in data set [11] was > 112 µM (not active) each time.

As to `CCOC(=O)C(OC(=O)c1sc(=S)n(C)c1C)C(C)=O` (centres undefined), the half-maximal effective concentration (EC50) in data set [10] and in data set [11] was > 112 µM (not active) in each case.

On to `COC(=O)c1ccc(NC(S)=NC2CC3CCC2C3)cc1` (centres undefined), for which, in data set [1], the 50% inhibitory concentration (IC50) was 16.4 µM (active).

Regarding `O=C(NCCCN1CCOCC1)C1Nc2ccc(OC(F)(F)F)cc2C2C=CCC12` (centres undefined), the EC50 in data set [12] and in [13] was > 300 µM (not active) in each case.

In the case of `CCOC(=O)c1ccc(NC(=O)Cn2c(-c3nonc3N)nc3ccccc32)cc1`, the concentration for half-maximal inhibition (IC50) in [1] was 18.8 µM (not active).

For the compound `O=C(NC1CC1)C1Nc2ccc(OC(F)(F)F)cc2C2C=CCC12` (centres undefined), the half-maximal effective concentration (EC50) in [12] and in data set [13] was > 300 µM (not active) in each case.

On to `CCCCNC(=O)c1ccccc1C(=O)NCCCC`, for which the IC50 in [1] was < 0.4 µM (not active).

With `CCC1CCCCN1CCCNC(=O)Cn1c2ccccc2c2nc(=O)cc(C)n21` (centres undefined), the EC50 in data set [2], in [3] and in data set [4] was > 120 µM (not active) throughout.

As to `O=C(OCCc1ccccc1)c1cc(O)c(O)c(O)c1`, the EC50 was > 300 µM (not active) in data set [12] and 29.6 µM (active) in data set [13]. The IC50 in [5] was > 100 µM (active).

In the case of `Cc1ccc(-c2nc3ncccn3c2NC(=O)C2CC2)cc1`, the AC50 entry in data set [6] is “inconclusive”; in data set [8], 15.8 µM (inconclusive). Besides, the EC50 in data set [10] and in data set [11] was > 112 µM (not active) each time.

Turning to `COc1ccc(C(=O)COC(=O)c2cc(O)nc3ccccc23)c(OC)c1`, the EC50 in [2] is 20.7 µM (active); in [3], 8.87 µM (active); in data set [4], 54 µM (active).

`Cc1ccccc1N1C(=O)NC(=O)/C(=C\c2cc(C)n(C)c2C)C1=O`: the EC50 in [12] and in data set [13] was > 300 µM (not active) each time.

With `COc1ccccc1/C=C(/C(=O)OCC(=O)Nc1ccccc1C)c1ccccc1`, the IC50 in data set [1] is 9.36 µM (not active).

As to `COc1cccc(-n2cnc3sc(-c4ccccc4)cc3c2=O)c1`, the concentration for a half-maximal effect (EC50) in data set [2] is 0.136 µM (active); in data set [3], 0.185 µM (active); in data set [4], 0.124 µM (active).

With `Cc1ccc(C(=O)C2CCN(CC(=O)Nc3ccc4c(c3)OCCO4)CC2)cc1`, the EC50 in data set [10] and in [11] was > 112 µM (not active) throughout.

As for `O=C(NC1CCCC1)c1csc2c1CCCC2`, the EC50 in data set [10] and in data set [11] was > 112 µM (not active) in each case.

Consider `COc1ccc(N2CCC(CN=C(S)Nc3ccc(C)cc3C)C2)cc1` (centres undefined), for which the concentration for half-maximal inhibition (IC50) in [5] is 11 µM (active).

In the case of `COc1ccc(-c2nc3cnc(N4CCOCC4)nc3n(C[C@H]3CCCO3)c2=O)cc1`, the half-maximal activity concentration (AC50) in data set [8] is 5.01 µM (inconclusive); in data set [9], “inconclusive”.

On to `CC1CN=C(Nc2ccc(N(C)C)cc2)S1` (centres undefined), for which, in [5], the half-inhibitory concentration (IC50) is 9.27 µM (active).

As to `CC1OC(Oc2c(-c3cc(O)c(O)c(O)c3)oc3cc(O)cc(O)c3c2=O)C(O)C(O)C1O` (centres undefined), the EC50 was 18 µM (active) in data set [12] and 17.2 µM (active) in [13].

For the compound `COc1cc(C2C(C#N)=C(N)OC3=C2C(=O)CC(C)(C)C3)ccc1OCCN1CCOCC1` (centres undefined), the EC50 in data set [12] and in data set [13] was > 300 µM (not active) in each case.

Consider `CC(=O)C1=C(C)NC(SCC(=O)c2ccccc2)=C(C#N)C1c1ccco1` (centres undefined), for which the EC50 in data set [2] is 19.5 µM (active); in data set [3] it was 11 µM (active); in [4], 26.5 µM (active).

As to `NS(=O)(=O)c1cc(Br)c(/N=N\c2ccc(O)c3ncccc23)c(Br)c1`, the half-maximal activity concentration (AC50) in [8] is 1.26 µM (inconclusive); in data set [9], “inconclusive”.

For the compound `CC(=O)NS(=O)(=O)c1ccc(/N=c2\ssc3c2-c2cc(C)ccc2NC3(C)C)cc1`, the IC50 in data set [5] was > 100 µM (active).

As for `CCOC(=O)c1ccc(/N=c2\scc(C)n2CC)cc1`, the half-inhibitory concentration (IC50) in data set [1] is > 50 µM (not active).

With `O=C(N/N=C/C(Br)=C/c1ccccc1)C1CC1`, the figures for the concentration for a half-maximal effect (EC50) in data set [2], in data set [3] and in data set [4] were 15.8 µM (active), 18.7 µM (active) and 60.3 µM (active), respectively.

With `CCOc1cc(/C=N/NC(=O)c2ccncc2)ccc1OS(C)(=O)=O`, in data set [1], the IC50 is < 0.4 µM (not active).

Consider `c1ccc2[nH]c(-c3ccc4c(c3)OCO4)nc2c1`, for which the EC50 in data set [10] is 1.16 µM (active); in data set [11], 6.52 µM (active).
